In publication PMC10523091, “Stereo/regio-selective access to substituted 3-hydroxy-oxindoles with anti-proliferative assessment and in silico validation” (RSC Advances, 2023):
Like-named read-outs stand apart in the source and are kept apart here.

Tests used:
HCT116 = assay: MTS cell viability assay, HCT116; assay type: cell-based; conditions: for SI HCT116: SI = (IC50 for normal cell line FHC)/(IC50 for HCT116)
Protocol: (§1) The newly synthesized compounds were subjected to assessment for their potential to inhibit the proliferation of various cancer cell lines including colorectal carcinoma (HCT116), ovarian cancer (OVCAR 10), and human metastatic melanoma (1205Lu), and non-cancerous fetal human cells (FHC). […] In order to ascertain whether compound 4j is selectively cytotoxic or anti-proliferative to cancer cells, it was tested for non-cancerous fetal human cells (FHC).
(§2) HCT116, OVCAR 10, 1205Lu, and FHC cell lines were procured from American Type Culture Collection (ATCC, Manassas, VA, USA). All the cells were grown based on the recommendations by ATCC at 37 °C in a humidified atmosphere with CO2. Stock solutions of compounds were made up and delivered to cells in DMSO.
(§3) The cell viability assay was performed as described earlier[27] HCT116, OVCAR 10, 1205Lu, and FHC adherent cell lines were seeded in 96-well plate at a density of 5 × 10^3 cells per well. Next day, the cells were treated with the respective compounds at different doses for 48 h in triplicates. At the end of the treatment duration, the media were removed and fresh media were added containing 20 μL of [3-(4,5-dimethylthiazol-2-yl)-5-(3-carboxymethoxyphenyl)-2-(4-sulfophenyl)-2H-tetrazolium] (MTS) reagent per well (Promega, WI, USA). The optical densities of the solubilized formazan crystals were read with a 96-well multi-scanner (Dynex Technologies, MRX Revelation; Chantilly, VA, USA) at 490 nm and 630 nm, and the normalized percent viability was calculated. The IC50 values were calculated using non-linear regression (curve fit).

1205Lu = assay: MTS cell viability assay, 1205Lu; assay type: cell-based, human; conditions: for SI 1205Lu: SI = (IC50 for normal cell line FHC)/(IC50 for 1205Lu)
Protocol: as §1, §2, §3

FHC = assay: MTS cell viability assay, non-cancerous FHC; assay type: cell-based; conditions: 48 h treatment, non-cancerous fetal human cells, read-out: IC50 (μM) ± SD FHC
Protocol: as §1, §2, §3

OVCAR 10 = assay: MTS cell viability assay, OVCAR 10; assay type: cell-based; conditions: for SI OVCAR10: SI = (IC50 for normal cell line FHC)/(IC50 for OVCAR10)
Protocol: as §1, §2, §3

HCT-116 cells [1] = assay: Annexin V/7-AAD apoptosis assay; assay type: cell-based; conditions: 10 μM
Protocol: (§4) We further carried out apoptosis experiments utilizing the caspase-3/7 7-AAD and Annexin V/7-AAD assays to evaluate the mode of cell death.
(§5) The apoptosis assay using Muse Annexin V/7-AAD and Caspase 3/7 7-AAD assay kit (EMD Millipore, Darmstadt, Germany) was performed following manufacturer's protocol as described earlier.[28] Briefly, the cells were seeded in 6-well plate at a density of 1 × 10^5 cells per well. After 24 h incubation, the cells were treated with 10 μM of compound 4j. The cells were incubated for 24 and 48 h. At the end of the treatment period, the cells were harvested using enzyme free cell dissociation buffer. The samples were treated with the respective dyes based on the manufacturer's protocol. The samples were further analysed in Muse Cell Analyzer (Merck Millipore, Darmstadt, Germany).

HCT-116 cells [2] = assay: Caspase 3/7 7-AAD apoptosis assay; assay type: cell-based; conditions: 10 μM
Protocol: as §4, §5

[3] = MTS assay, 48 h treatment, ovarian cancer, read-out: IC50 (μM) ± SD OVCAR 10
[4] = Homo sapiens, HCT-116, MTS assay, 48 h treatment, colorectal carcinoma, read-out: IC50 (μM) ± SD HCT116
[5] = 1205Lu, MTS assay, 48 h treatment, human metastatic melanoma, read-out: IC50 (μM) ± SD 1205Lu
[6] = Homo sapiens, HCT-116, repeated in docking table, unit inferred, read-out: IC50 HCT116
[7] = Homo sapiens, 1205Lu, repeated in docking table, unit inferred, read-out: IC50 1205Lu
[8] = repeated in docking table, unit inferred, read-out: IC50 OVCAR10

IC50 (OVCAR 10; [3]) [µM]	IC50 (HCT116; [4]) [µM]	melting point [°C]	SMILES	IC50 (1205Lu; [5]) [µM]	IC50 (FHC; FHC) [µM]	other results
130 ± 17.2	117 ± 19.6	–	O=C1N(Cc2ccccc2)c2ccc(Cl)cc2C1(O)CN1CCCCC1 (stereo not shown) [Compound 4h]	110 ± 18.4	106 ± 17.2	–
81.5 ± 12.5	93.4 ± 19.3	121 to 124	O=C1N(Cc2ccccc2)c2ccc(Cl)cc2C1(O)CN1CCCC1 (stereo not shown) [Compound 4i, 1-Benzyl-5-chloro-3-hydroxy-3-(pyrrolidin-1-ylmethyl)indolin-2-one]	96.4 ± 18.8	96.5 ± 22.2	–
91.2 ± 18.7	110 ± 24.4	170 to 172	O=C1N(Cc2ccccc2)c2c(Br)cc(Br)cc2C1(O)CN1CCCCC1 (stereo not shown) [Compound 4k, 1-Benzyl-5,7-dibromo-3-hydroxy-3-(piperidin-1ylmethyl)indolin-2-one]	89.9 ± 16.8	88.6 ± 20.3	IC50 (HCT116; [6]): 110 µM; IC50 (1205Lu; [7]): 89.9 µM; IC50 (OVCAR 10; [8]): 91.2 µM
94.3 ± 18	91.5 ± 26.9	–	O=C1N(Cc2ccccc2)c2c(Br)cc(Br)cc2C1(O)CN1CCCC1 (stereo not shown) [Compound 4l]	91.6 ± 18.3	94.8 ± 15.3	–
92.3 ± 18.2	95.4 ± 9.66	–	O=C1Nc2ccccc2C1(O)CN1CCOCC1 (stereo not shown) [Compound 4m, 3-Hydroxy-3-(morpholinomethyl)indolin-2-one]	99.7 ± 11.5	89.4 ± 14.6	–
112 ± 21.3	105 ± 23.3	154 to 156	O=C1Nc2ccccc2C1(O)CN1CCCCC1 (stereo not shown) [Compound 4n, 3-Hydroxy-3-(piperidin-1-ylmethyl)indolin-2-one]	109 ± 24.7	96.8 ± 18.5	–
116 ± 11.8	102 ± 18.7	–	O=C1Nc2ccccc2C1(O)CN1CCCC1 (stereo not shown) [Compound 4o, 3-Hydroxy-3-(pyrrolidin-1-ylmethyl)indolin-2-one]	130 ± 14	95.7 ± 13	–
22.4 ± 4.1	22.3 ± 1.7	–	O=c1[nH]cc(F)c(=O)[nH]1 [Compound 5-FU, 5-fluorouracil, reference compound]	15.4 ± 2.9	21.3 ± 4.2	IC50 (HCT116; [6]): 22.3 µM; SI HCT116 (HCT116): 0.95; IC50 (1205Lu; [7]): 15.4 µM; SI 1205Lu (1205Lu): 1.38; SI OVCAR10 (OVCAR 10): 0.95; IC50 (OVCAR 10; [8]): 22.4 µM

The next lines start with the molecule.

SMILES	IC50 (OVCAR 10; [3]) [µM]	IC50 (HCT116; [4]) [µM]	melting point [°C]	IC50 (1205Lu; [5]) [µM]	IC50 (FHC; FHC) [µM]	other results
N.N.[Cl][Pt][Cl] [Cisplatin, cisplatin, reference compound]	18.2 ± 2.5	–	–	–	–	IC50 (HCT116; MTS assay, 48 h treatment, colorectal carcinoma, read-out: IC50 (μM) ± SD HCT116): 12.1 ± 2.5 µM; SI HCT116 (HCT116): 2.07; IC50 (1205Lu; MTS assay, 48 h treatment, human metastatic melanoma, read-out: IC50 (μM) ± SD 1205Lu): 19 ± 1.5 µM; SI 1205Lu (1205Lu): 1.3; IC50 (FHC): 25.1 ± 3.2 µM; SI OVCAR10 (OVCAR 10): 1.37
O=C1N(Cc2ccccc2)c2ccccc2C1(O)CN1CCOCC1 (stereo not shown) [Compound 4a, 1-Benzyl-3-hydroxy-3-(morpholinomethyl)indolin-2-one]	120 ± 15.4	104 ± 25	–	111 ± 18.9	122 ± 13.2	–
O=C1N(Cc2ccccc2)c2ccccc2C1(O)CN1CCCCC1 (stereo not shown) [Compound 4b, 1-Benzyl-3-hydroxy-3-(piperidin-1-ylmethyl)indolin-2-one]	69.2 ± 16.2	85.2 ± 15.3	–	65.3 ± 15.3	63.5 ± 22.2	–
O=C1N(Cc2ccccc2)c2ccccc2C1(O)CN1CCCC1 (stereo not shown) [Compound 4c, 1-Benzyl-3-hydroxy-3-(pyrrolidin-1-ylmethyl)indolin-2-one]	61.2 ± 13.2	65.9 ± 16.7	169 to 171	78.2 ± 24	76.3 ± 14.5	–
O=C1N(Cc2ccccc2)c2ccc(Br)cc2C1(O)CN1CCOCC1 (stereo not shown) [Compound 4d, 1-Benzyl-5-bromo-3-hydroxy-3-(morpholinomethyl)indolin-2-one]	87.9 ± 13	84.1 ± 19.4	–	81.2 ± 15.1	73.2 ± 19.6	–
O=C1N(Cc2ccccc2)c2ccc(Br)cc2C1(O)CN1CCCCC1 (stereo not shown) [Compound 4e, 1-Benzyl-5-bromo-3-hydroxy-3-(piperidin-1-ylmethyl)indolin-2-one]	93.1 ± 15.6	92.2 ± 17.2	189 to 191	98 ± 13.2	88.3 ± 16.9	–
O=C1N(Cc2ccccc2)c2ccc(Br)cc2C1(O)CN1CCCC1 (stereo not shown) [Compound 4f, 1-Benzyl-5-bromo-3-hydroxy-3-(pyrrolidin-1-ylmethyl)indolin-2-one]	88.5 ± 18.9	85.3 ± 16	144 to 146	85.6 ± 13.2	81.3 ± 15.6	–
O=C1N(Cc2ccccc2)c2ccc(Cl)cc2C1(O)CN1CCOCC1 (stereo not shown) [Compound 4g, 1-Benzyl-5-chloro-3-hydroxy-3-(morpholinomethyl)indolin-2-one]	112 ± 11.7	121 ± 17.1	191 to 193	125 ± 19.8	121 ± 21.2	–
O=C1N(Cc2ccccc2)c2c(Br)cc(Br)cc2C1(O)CN1CCOCC1 (stereo not shown) [Compound 4j, 1-Benzyl-5,7-dibromo-3-hydroxy-3-(morpholinomethyl)indolin-2-one]	8.56 ± 1.1	9.63 ± 1.3	–	12.2 ± 1.7	20.6 ± 3.1	IC50 (HCT116; [6]): 9.63 µM; SI HCT116 (HCT116): 2.12; IC50 (1205Lu; [7]): 12.2 µM; SI 1205Lu (1205Lu): 1.68; SI OVCAR10 (OVCAR 10): 2.40; IC50 (OVCAR 10; [8]): 8.56 µM; apoptotic cells, Annexin V/7-AAD (HCT-116 cells [1]; 24 h): 19.5%; apoptotic cells, Annexin V/7-AAD (HCT-116 cells [1]; 48 h): 46.15%; apoptotic cell population, Caspase 3/7 7-AAD (HCT-116 cells [2]; 24 h): 21.5%; apoptotic cell population, Caspase 3/7 7-AAD (HCT-116 cells [2]; 48 h): 57.9%
